How the values were obtained:
MCF7 [1] = assay: Cytotoxicity against human MCF7 cells assessed as growth inhibition at 10 uM measured after 48 hrs by MTT assay relative to control; assay type: functional; conditions: MCF7, 48 h, read-out: GI
MIA PaCa-2 [2] = assay: Cytotoxicity against human MIAPaCa2 cells assessed as growth inhibition at 10 uM measured after 48 hrs by MTT assay relative to control; assay type: functional; conditions: MIA PaCa-2, 48 h, read-out: GI
A549 [3] = assay: Cytotoxicity against human A549 cells assessed as growth inhibition at 10 uM measured after 48 hrs by MTT assay relative to control; assay type: functional; conditions: A549, 48 h, read-out: GI
HepG2 [4] = assay: Cytotoxicity against human HepG2 cells assessed as growth inhibition at 10 uM measured after 48 hrs by MTT assay relative to control; assay type: functional; conditions: HepG2, 48 h, read-out: GI
[5] = Cytotoxicity against human FR2 cells assessed as growth inhibition at 10 uM measured after 48 hrs by MTT assay relative to control; assay type: cell-based; conditions: FR2 cells, read-out: GI
MCF7 [6] = assay: Cytotoxicity against human MCF7 cells measured after 48 hrs by MTT assay; assay type: functional, cell-based; conditions: MCF7, 48 h
MIA PaCa-2 [7] = assay: Cytotoxicity against human MIAPaCa2 cells measured after 48 hrs by MTT assay; assay type: functional, cell-based; conditions: MIA PaCa-2, 48 h
A549 [8] = assay: Cytotoxicity against human A549 cells measured after 48 hrs by MTT assay; assay type: functional, cell-based; conditions: A549, 48 h
HepG2 [9] = assay: Cytotoxicity against human HepG2 cells measured after 48 hrs by MTT assay; assay type: functional, cell-based; conditions: HepG2, 48 h
[10] = Cytotoxicity against human FR2 cells measured after 48 hrs by MTT assay; assay type: cell-based; conditions: FR2, 48 h
[11] = Selectivity index, ratio of IC50 for human FR2 cells to IC50 for human MCF7 cells; assay type: functional
[12] = Selectivity index, ratio of IC50 for human FR2 cells to IC50 for human MIAPaCa2 cells; assay type: functional
MIA PaCa-2 [13] = assay: Cell cycle arrest in human MIAPaCa2 cells assessed as apoptotic cells at 10 uM measured after 24 hrs by propidium iodide staining based flow cytometric analysis (reference value: 1%); assay type: functional
MIA PaCa-2 [14] = assay: Cell cycle arrest in human MIAPaCa2 cells assessed as accumulation at G1 phase at 10 uM measured after 24 hrs by propidium iodide staining based flow cytometric analysis (reference value: 59%); assay type: functional
MIA PaCa-2 [15] = assay: Cell cycle arrest in human MIAPaCa2 cells assessed as accumulation at G2 phase at 10 uM measured after 24 hrs by propidium iodide staining based flow cytometric analysis (reference value: 5%); assay type: functional
MIA PaCa-2 [16] = assay: Cell cycle arrest in human MIAPaCa2 cells assessed as accumulation at S phase at 10 uM measured after 24 hrs by propidium iodide staining based flow cytometric analysis (reference value: 36%); assay type: functional
MIA PaCa-2 [17] = assay: Cell cycle arrest in human MIAPaCa2 cells assessed as apoptotic cells at 30 uM measured after 24 hrs by propidium iodide staining based flow cytometric analysis (reference value: 1%); assay type: functional
MIA PaCa-2 [18] = assay: Cell cycle arrest in human MIAPaCa2 cells assessed as accumulation at G1 phase at 30 uM measured after 24 hrs by propidium iodide staining based flow cytometric analysis (reference value: 59%); assay type: functional
MIA PaCa-2 [19] = assay: Cell cycle arrest in human MIAPaCa2 cells assessed as accumulation at G2 phase at 30 uM measured after 24 hrs by propidium iodide staining based flow cytometric analysis (reference value: 5%); assay type: functional
MIA PaCa-2 [20] = assay: Cell cycle arrest in human MIAPaCa2 cells assessed as accumulation at S phase at 30 uM measured after 24 hrs by propidium iodide staining based flow cytometric analysis (reference value: 36%); assay type: functional
MIA PaCa-2 [21] = assay: Cell cycle arrest in human MIAPaCa2 cells assessed as apoptotic cells at 50 uM measured after 24 hrs by propidium iodide staining based flow cytometric analysis (reference value: 1%); assay type: functional
MIA PaCa-2 [22] = assay: Cell cycle arrest in human MIAPaCa2 cells assessed as accumulation at G1 phase at 50 uM measured after 24 hrs by propidium iodide staining based flow cytometric analysis (reference value: 59%); assay type: functional
MIA PaCa-2 [23] = assay: Cell cycle arrest in human MIAPaCa2 cells assessed as accumulation at G2 phase at 50 uM measured after 24 hrs by propidium iodide staining based flow cytometric analysis (reference value: 5%); assay type: functional
MIA PaCa-2 [24] = assay: Cell cycle arrest in human MIAPaCa2 cells assessed as accumulation at S phase at 50 uM measured after 24 hrs by propidium iodide staining based flow cytometric analysis (reference value: 36%); assay type: functional
MIA PaCa-2 [25] = assay: Cell cycle arrest in human MIAPaCa2 cells assessed as apoptotic cells measured after 24 hrs by propidium iodide staining based flow cytometric analysis; assay type: functional
MIA PaCa-2 [26] = assay: Induction of mitochondrial membrane depolarization in human MIAPaCa2 cells measured after 24 hrs by […] staining based flow cytometric analysis; assay type: functional, cell-based
MIA PaCa-2 [27] = assay: Induction of mitochondrial membrane depolarization in human MIAPaCa2 cells at 10 uM measured after 24 hrs by […] staining flow cytometric analysis (reference value: 2%); assay type: functional
MIA PaCa-2 [28] = assay: Induction of mitochondrial membrane depolarization in human MIAPaCa2 cells at 30 uM measured after 24 hrs by […] staining flow cytometric analysis (reference value: 2%); assay type: functional
MIA PaCa-2 [29] = assay: Induction of mitochondrial membrane depolarization in human MIAPaCa2 cells at 50 uM measured after 24 hrs by […] staining flow cytometric analysis (reference value: 2%); assay type: functional
MIA PaCa-2 [30] = assay: Induction of apoptosis in human MIAPaCa2 cells assessed as activation of procaspase-9 measured after 24 hrs by Western blot analysis; assay type: functional, cell-based
MIA PaCa-2 [31] = assay: Induction of apoptosis in human MIAPaCa2 cells assessed as activation of procaspase-8 measured after 24 hrs by Western blot analysis; assay type: functional, cell-based
MIA PaCa-2 [32] = assay: Induction of apoptosis in human MIAPaCa2 cells assessed as increase in casapase-3 cleavage measured after 24 hrs by Western blot analysis; assay type: functional, cell-based
MIA PaCa-2 [33] = assay: Induction of apoptosis in human MIAPaCa2 cells assessed as increase in PARP-1 cleavage measured after 24 hrs by Western blot analysis; assay type: functional, cell-based

SMILES: COc1ccc(C(=O)/C=C/c2ccc(OCc3cn(Cc4ccccc4)nn3)cc2)cc1
- inhibition of growth at 10 µM (MCF7 [1]): 70%
- inhibition of growth at 10 µM (MIA PaCa-2 [2]): 68%
- inhibition of growth at 10 µM (A549 [3]): 44%
- inhibition of growth at 10 µM (HepG2 [4]): 51%
- inhibition at 48 h, 10 µM [5]: 6%
- IC50 (MCF7 [6]): 5 µM
- IC50 (MIA PaCa-2 [7]): 4 µM
- IC50 (A549 [8]): 11 µM
- IC50 (HepG2 [9]): 9 µM
- IC50 [10]: > 100 µM
- Ratio IC50 [11]: >20
- Ratio IC50 [12]: 25
- Activity (MIA PaCa-2 [13]): 2%
- Activity (MIA PaCa-2 [14]): 36%
- Activity (MIA PaCa-2 [15]): 11%
- Activity (MIA PaCa-2 [16]): 53%
- Activity (MIA PaCa-2 [17]): 6%
- Activity (MIA PaCa-2 [18]): 52%
- Activity (MIA PaCa-2 [19]): 14%
- Activity (MIA PaCa-2 [20]): 44%
- Activity (MIA PaCa-2 [21]): 11%
- Activity (MIA PaCa-2 [22]): 41%
- Activity (MIA PaCa-2 [23]): 8%
- Activity (MIA PaCa-2 [24]): 51%
- Activity (MIA PaCa-2 [25]): Dose-dependent effect
- Activity (MIA PaCa-2 [26]): Dose-dependent effect
- Activity (MIA PaCa-2 [27]): 4%
- Activity (MIA PaCa-2 [28]): 8%
- Activity (MIA PaCa-2 [29]): 11%
- Activity (MIA PaCa-2 [30]): Dose-dependent effect
- Activity (MIA PaCa-2 [31]): Dose-dependent effect
- Activity (MIA PaCa-2 [32]): Dose-dependent effect
- Activity (MIA PaCa-2 [33]): Dose-dependent effect
